Measurements from PMC5306265 (Investigational New Drugs, 2016).
Like-named read-outs stand apart in the source and are kept apart here.

Legend:
[1] = once-daily oral dosing, mouse xenograft models; cited from earlier work
[2] = Plasma pharmacokinetics in patients (LC-MS/MS, noncompartmental analysis); format: in vivo, human; details: for half-life / AUC / Cmax / Tmax: human, plasma; for AUC / Cmax / Tmax: po; for AUC: read-out: AUC(0-τ) Geometric mean (%CV); for Cmax: read-out: Cmax Geometric mean (%CV)
Description: Quality controls, analyzed in duplicate over the validation range, and inter-assay precision, evaluated at each level in duplicate in six runs, met the performance and acceptance criteria. Noncompartmental analyses, using WinNonlin version 6.1 or higher (Pharsight, Cary, NC), in pharmacokinetic-evaluable patients were used to determine plasma and urine pharmacokinetic parameters including: Cmax, maximum plasma concentration; Tmax, time to Cmax; AUC0–τ, area under the plasma concentration–time curve over the dosing interval; CL/F, apparent clearance; t½, terminal elimination half-life; accumulation ratio; peak/trough ratio; and renal clearance.

[3] = tested on: xenograft model; details: single-agent TAK-733, cited from earlier work

Compound: Cn1c(=O)c(F)c(Nc2ccc(I)cc2F)c2c(=O)n(C[C@@H](O)CO)cnc21 [TAK-733]
- time after dosing at which plasma concentrations decrease rapidly [1]: 8 to 16 h
- CLss/F Geometric mean (%CV) ([2]; 3.2 mg oral, day 21): 3.0 (102) L/h
- Rac Mean (SD) ([2]; 3.2 mg oral, day 21): 7.2 (1.5)
- CLss/F Geometric mean (%CV) ([2]; 4.4 mg oral, day 21): 13.8 (29) L/h
- CLss/F Geometric mean (%CV) ([2]; 6 mg oral, day 21): 6.5 (18) L/h
- Rac Mean (SD) ([2]; 6 mg oral, day 21): 2.8 (1.2)
- CLss/F Geometric mean (%CV) ([2]; 8.4 mg oral, day 21): 10.7 (17) L/h
- Rac Mean (SD) ([2]; 8.4 mg oral, day 21): 2.5 (1.0)
- CLss/F Geometric mean (%CV) ([2]; 16 mg oral, day 21): 7.4 (28) L/h
- Rac Mean (SD) ([2]; 16 mg oral, day 21): 4.4 (2.6)
- CLss/F Geometric mean (%CV) ([2]; 22 mg oral, day 21): 15.7 (36) L/h
- Rac Mean (SD) ([2]; 22 mg oral, day 21): 1.8 (1.2)
- half-life ([2]; oral, 11.8–22 mg dose range, read-out: Terminal half-life following multiple dosing): 29 to 50 h
- AUC ([2]; 3.2 mg, 3.2 mg oral, day 1): 129 ng·h/mL
- Cmax ([2]; 3.2 mg, 3.2 mg oral, day 1): 14.8 ng/mL
- Tmax ([2]; 3.2 mg, 3.2 mg oral, day 1, read-out: Tmax Median (range)): 1.55 h
- AUC ([2]; 3.2 mg, 3.2 mg oral, day 21): 1050 ng·h/mL
- Cmax ([2]; 3.2 mg, 3.2 mg oral, day 21): 63 ng/mL
- Tmax ([2]; 3.2 mg, 3.2 mg oral, day 21, read-out: Tmax Median (range)): 3 h
- AUC ([2]; 4.4 mg, 4.4 mg oral, day 1): 98.1 ng·h/mL
- Cmax ([2]; 4.4 mg, 4.4 mg oral, day 1): 11 ng/mL
- Tmax ([2]; 4.4 mg, 4.4 mg oral, day 1, read-out: Tmax Median (range)): 3.5 h
- AUC ([2]; 4.4 mg, 4.4 mg oral, day 21): 318 ng·h/mL
- Cmax ([2]; 4.4 mg, 4.4 mg oral, day 21): 24.8 ng/mL
- Tmax ([2]; 4.4 mg, 4.4 mg oral, day 21, read-out: Tmax Median (range)): 1.95 h
- AUC ([2]; 6 mg, 6 mg oral, day 1): 331 ng·h/mL
- Cmax ([2]; 6 mg, 6 mg oral, day 1): 26.2 ng/mL
- Tmax ([2]; 6 mg, 6 mg oral, day 1, read-out: Tmax Median (range)): 4.5 h
- AUC ([2]; 6 mg, 6 mg oral, day 21): 925 ng·h/mL
- Cmax ([2]; 6 mg, 6 mg oral, day 21): 59.7 ng/mL
- Tmax ([2]; 6 mg, 6 mg oral, day 21, read-out: Tmax Median (range)): 3 h
- AUC ([2]; 8.4 mg, 8.4 mg oral, day 1): 360 ng·h/mL
- Cmax ([2]; 8.4 mg, 8.4 mg oral, day 1): 28.4 ng/mL
- Tmax ([2]; 8.4 mg, 8.4 mg oral, day 1, read-out: Tmax Median (range)): 3 h
- AUC ([2]; 8.4 mg, 8.4 mg oral, day 21): 786 ng·h/mL
- Cmax ([2]; 8.4 mg, 8.4 mg oral, day 21): 57.4 ng/mL
- Tmax ([2]; 8.4 mg, 8.4 mg oral, day 21, read-out: Tmax Median (range)): 3 h
- AUC ([2]; 11.8 mg, 11.8 mg oral, day 1): 299 ng·h/mL
- Cmax ([2]; 11.8 mg, 11.8 mg oral, day 1): 23 ng/mL
- Tmax ([2]; 11.8 mg, 11.8 mg oral, day 1, read-out: Tmax Median (range)): 3.05 h
- Cmax ([2]; 11.8 mg, 11.8 mg oral, day 21): 53.2 ng/mL
- Tmax ([2]; 11.8 mg, 11.8 mg oral, day 21, read-out: Tmax Median (range)): 4 h
- AUC ([2]; 16 mg, 16 mg oral, day 1): 640 ng·h/mL
- Cmax ([2]; 16 mg, 16 mg oral, day 1): 55.7 ng/mL
- Tmax ([2]; 16 mg, 16 mg oral, day 1, read-out: Tmax Median (range)): 2.1 h
- AUC ([2]; 16 mg, 16 mg oral, day 21): 2150 ng·h/mL
- Cmax ([2]; 16 mg, 16 mg oral, day 21): 151 ng/mL
- Tmax ([2]; 16 mg, 16 mg oral, day 21, read-out: Tmax Median (range)): 3.4 h
- AUC ([2]; 22 mg, 22 mg oral, day 1): 766 ng·h/mL
- Cmax ([2]; 22 mg, 22 mg oral, day 1): 60 ng/mL
- Tmax ([2]; 22 mg, 22 mg oral, day 1, read-out: Tmax Median (range)): 3 h
- AUC ([2]; 22 mg, 22 mg oral, day 21): 1390 ng·h/mL
- Cmax ([2]; 22 mg, 22 mg oral, day 21): 105 ng/mL
- Tmax ([2]; 22 mg, 22 mg oral, day 21, read-out: Tmax Median (range)): 1.05 h
- Tmax ([2]; 0.2–22 mg, overall, read-out: Tmax range): 0.5 to 8.1 h
- Tmax ([2]; 0.2–22 mg, read-out: overall median Tmax): 3 h
- half-life ([2]; 11.8 mg oral, day 21, read-out: Terminal t½ Mean (SD) (converted)): 43 h
- half-life ([2]; 16 mg oral, day 21, read-out: Terminal t½ Mean (SD) (converted)): 39.9 h
- half-life ([2]; 22 mg oral, day 21, read-out: Terminal t½ Mean (SD) (converted)): 38.3 h
- exposures associated with stasis in the most sensitive xenograft model [3]: 861 to 1065 ng·h/mL
- time-averaged inhibition of ERK phosphorylation associated with tumor stasis ([3]; xenograft models): 76–89%
- On-study death (N = 51): 5 (10) n (%)
- Rash pustular (drug-related grade ≥ 3 AE, N = 51): 1 (2) n (%)
- on-study deaths related to TAK-733 (five on-study deaths): None of the deaths were considered related to TAK-733
- AE resulting in study drug discontinuation (human, in vivo): 7 (14) n (%)
- AST increased (human, in vivo): 7 (14) n (%)
- Any drug-related AE (human, in vivo): 45 (88) n (%)
- Decreased appetite (human, in vivo): 10 (20) n (%)
- Dry skin (human, in vivo): 5 (10) n (%)
- Hypophosphatemia (human, in vivo): 1 (2) n (%)
- Increased AST (human, in vivo): 13 (25) n (%)
- Increased CPK (human, in vivo): 10 (20) n (%)
- Neuropathy peripheral (human, in vivo): 1 (2) n (%)
- Pain in extremity (human, in vivo): 1 (2) n (%)
- Pulmonary embolism (human, in vivo): 1 (2) n (%)
- SAE: anemia (human, in vivo): 2 n
- SAE: progression of metastatic melanoma (human, in vivo): 3 n
- SAE: pulmonary embolism (human, in vivo): 2 n
- abnormal sensation in eye (human, in vivo): 1 n
- blurred vision (human, in vivo): 2 n
- patients with any rash AEs (human, in vivo): 34 (67 %) patients (%)
- patients with erythematous rash (human, in vivo): 1 (2 %) patients (%)
- patients with exfoliative rash (human, in vivo): 1 (2 %) patients (%)
- patients with macular rash (human, in vivo): 2 (4 %) patients (%)
- patients with maculo-papular rash (human, in vivo): 2 (4 %) patients (%)
- patients with ophthalmic AEs (eye disorders system organ class) (human, in vivo): 7 (14 %) patients (%)
- patients with papular rash (human, in vivo): 2 (4 %) patients (%)
- patients with pruritic rash (human, in vivo): 1 (2 %) patients (%)
- patients with rash (human, in vivo): 3 (6 %) patients (%)
- periorbital edema (human, in vivo): 1 n
- photophobia (human, in vivo): 1 n
- photopsia (human, in vivo): 2 n
- retinal edema (human, in vivo): 1 n
- visual impairment (human, in vivo): 3 n
- cutaneous squamous cell carcinomas (in vivo): No cutaneous squamous cell carcinomas were seen
- retinopathies (in vivo): absence of retinopathies
- patients with pustular rash (overall, N = 51): 1 (2 %) patients (%)
